Measurements: article PMC7522982, “PKIS deep dive yields a chemical starting point for dark kinases and a cell active BRSK2 inhibitor” (Scientific Reports, 2020)

Legend:
BRSK1 [1] = target: T1, BRSK1 (Homo sapiens, UniProt Q8TDC3); set-up: purchased Eurofins DiscoverX Corporation; method as in earlier work; details: cited from earlier work
T1 sequence (Q8TDC3 1-778): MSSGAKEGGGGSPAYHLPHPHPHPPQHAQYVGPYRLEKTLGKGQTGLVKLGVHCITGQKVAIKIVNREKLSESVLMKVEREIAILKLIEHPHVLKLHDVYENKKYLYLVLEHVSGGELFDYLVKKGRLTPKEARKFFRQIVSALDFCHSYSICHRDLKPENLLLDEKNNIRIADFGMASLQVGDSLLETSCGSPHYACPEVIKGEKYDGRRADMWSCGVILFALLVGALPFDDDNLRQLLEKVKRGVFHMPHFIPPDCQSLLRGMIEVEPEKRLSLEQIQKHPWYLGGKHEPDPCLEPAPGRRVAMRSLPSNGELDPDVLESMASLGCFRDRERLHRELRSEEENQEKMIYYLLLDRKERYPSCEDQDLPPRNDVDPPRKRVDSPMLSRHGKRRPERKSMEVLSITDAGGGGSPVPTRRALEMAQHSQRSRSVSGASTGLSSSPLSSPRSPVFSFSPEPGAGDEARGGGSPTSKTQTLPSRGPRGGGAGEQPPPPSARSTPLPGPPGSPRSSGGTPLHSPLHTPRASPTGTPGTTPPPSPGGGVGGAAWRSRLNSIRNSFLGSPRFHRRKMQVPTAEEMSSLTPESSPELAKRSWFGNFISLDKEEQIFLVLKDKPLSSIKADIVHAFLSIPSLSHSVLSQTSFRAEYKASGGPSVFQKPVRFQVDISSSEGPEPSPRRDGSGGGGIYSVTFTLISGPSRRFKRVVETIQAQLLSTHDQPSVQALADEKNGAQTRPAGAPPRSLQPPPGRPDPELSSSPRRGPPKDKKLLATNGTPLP

DAPK1 = DAPK1 (Homo sapiens, UniProt P53355); assay: DiscoverX scanMAX competition binding assay; set-up: purchased Eurofins DiscoverX Corporation
Source text: (§1) Based on its narrow profile when tested in the combined Nanosyn and TSA panels, GW296115 was included in the recently released Kinase Chemogenomic Set (KCGS)[15]. All of the data presented in the Introduction section was collected prior to the inclusion of GW296115 in KCGS and everything that follows has been subsequently generated. Since its inclusion in PKIS and more recently KCGS, we have carried out a broader round of screening at DiscoverX. This profiling data has not been previously released and is reported here for the first time. GW296115 was profiled against 403 wild type human kinases at 1 μM using the DiscoverX scanMAX screening platform, which employs an active site-directed competition binding assay to quantitatively measure interactions between test compounds and kinases, [16]. GW296115 inhibited 25 kinases > 90% at 1 μM, resulting in a selectivity index (S10) of 0.062 at 1 μM (Table S2, Fig. 1C)[17].
(§2) The scanMAX assays were performed at Eurofins DiscoverX Corporation as previously described.

ROS1 = ROS1 (Homo sapiens, UniProt P08922); assay: DiscoverX scanMAX competition binding assay; set-up: purchased Eurofins DiscoverX Corporation
Source text: as §1, §2

DCLK3/DCAMKL3 = DCLK3/DCAMKL3 (Homo sapiens, UniProt Q9C098); assay: DiscoverX scanMAX competition binding assay; set-up: purchased Eurofins DiscoverX Corporation
Source text: as §1, §2

NUAK1/ARK5 = NUAK1/ARK5 (Homo sapiens, UniProt O60285); assay: DiscoverX scanMAX competition binding assay; set-up: purchased Eurofins DiscoverX Corporation
Source text: as §1, §2

BRSK2 = target: T2, BRSK2 (Homo sapiens, UniProt Q8IWQ3); assay: DiscoverX scanMAX competition binding assay; set-up: purchased Eurofins DiscoverX Corporation
T2 sequence (Q8IWQ3 1-736): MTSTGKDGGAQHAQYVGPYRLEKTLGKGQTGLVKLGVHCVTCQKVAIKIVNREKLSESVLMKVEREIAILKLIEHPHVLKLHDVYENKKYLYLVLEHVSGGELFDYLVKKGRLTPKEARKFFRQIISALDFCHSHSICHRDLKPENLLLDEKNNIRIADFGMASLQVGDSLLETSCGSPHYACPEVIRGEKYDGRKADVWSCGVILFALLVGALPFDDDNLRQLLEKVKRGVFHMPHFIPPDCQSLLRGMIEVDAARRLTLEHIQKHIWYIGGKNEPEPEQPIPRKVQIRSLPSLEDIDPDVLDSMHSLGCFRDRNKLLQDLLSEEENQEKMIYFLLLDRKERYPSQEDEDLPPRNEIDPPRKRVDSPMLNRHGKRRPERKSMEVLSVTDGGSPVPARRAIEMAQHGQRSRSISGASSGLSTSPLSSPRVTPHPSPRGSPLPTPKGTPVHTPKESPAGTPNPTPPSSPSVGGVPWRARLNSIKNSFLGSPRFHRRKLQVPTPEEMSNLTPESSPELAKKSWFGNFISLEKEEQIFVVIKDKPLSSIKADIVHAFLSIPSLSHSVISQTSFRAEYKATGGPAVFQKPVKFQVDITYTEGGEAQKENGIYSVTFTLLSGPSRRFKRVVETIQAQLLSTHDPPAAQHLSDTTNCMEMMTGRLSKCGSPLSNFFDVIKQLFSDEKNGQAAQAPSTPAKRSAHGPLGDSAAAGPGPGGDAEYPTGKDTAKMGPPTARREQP
Source text: as §1, §2

AXL = AXL (Homo sapiens, UniProt P30530); assay: DiscoverX scanMAX competition binding assay; set-up: purchased Eurofins DiscoverX Corporation
Source text: as §1, §2

SGK3 = SGK3 (Homo sapiens, UniProt Q96BR1); assay: DiscoverX scanMAX competition binding assay; set-up: purchased Eurofins DiscoverX Corporation
Source text: as §1, §2

BRSK1 [2] = target: T1, BRSK1; assay: DiscoverX scanMAX competition binding assay; set-up: purchased Eurofins DiscoverX Corporation
Source text: as §1, §2

PHKG1 = PHKG1 (Homo sapiens, UniProt Q16816); assay: DiscoverX scanMAX competition binding assay; set-up: purchased Eurofins DiscoverX Corporation
Source text: as §1, §2

PIM2 = PIM2 (Homo sapiens, UniProt Q9P1W9); assay: DiscoverX scanMAX competition binding assay; set-up: purchased Eurofins DiscoverX Corporation
Source text: as §1, §2

DMPK = DMPK (Homo sapiens, UniProt Q09013); assay: DiscoverX scanMAX competition binding assay; set-up: purchased Eurofins DiscoverX Corporation
Source text: as §1, §2

Chain of PIM2 (Q9P1W9 whole entry): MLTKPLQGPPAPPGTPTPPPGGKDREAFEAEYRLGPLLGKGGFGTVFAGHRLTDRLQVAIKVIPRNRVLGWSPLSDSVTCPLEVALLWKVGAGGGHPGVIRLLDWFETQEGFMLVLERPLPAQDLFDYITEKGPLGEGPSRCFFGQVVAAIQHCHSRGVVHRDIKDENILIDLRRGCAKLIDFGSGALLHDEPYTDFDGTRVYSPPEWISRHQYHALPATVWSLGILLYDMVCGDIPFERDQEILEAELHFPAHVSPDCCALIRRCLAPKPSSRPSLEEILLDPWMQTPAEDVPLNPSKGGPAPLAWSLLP
Chain of AXL (P30530 26-894): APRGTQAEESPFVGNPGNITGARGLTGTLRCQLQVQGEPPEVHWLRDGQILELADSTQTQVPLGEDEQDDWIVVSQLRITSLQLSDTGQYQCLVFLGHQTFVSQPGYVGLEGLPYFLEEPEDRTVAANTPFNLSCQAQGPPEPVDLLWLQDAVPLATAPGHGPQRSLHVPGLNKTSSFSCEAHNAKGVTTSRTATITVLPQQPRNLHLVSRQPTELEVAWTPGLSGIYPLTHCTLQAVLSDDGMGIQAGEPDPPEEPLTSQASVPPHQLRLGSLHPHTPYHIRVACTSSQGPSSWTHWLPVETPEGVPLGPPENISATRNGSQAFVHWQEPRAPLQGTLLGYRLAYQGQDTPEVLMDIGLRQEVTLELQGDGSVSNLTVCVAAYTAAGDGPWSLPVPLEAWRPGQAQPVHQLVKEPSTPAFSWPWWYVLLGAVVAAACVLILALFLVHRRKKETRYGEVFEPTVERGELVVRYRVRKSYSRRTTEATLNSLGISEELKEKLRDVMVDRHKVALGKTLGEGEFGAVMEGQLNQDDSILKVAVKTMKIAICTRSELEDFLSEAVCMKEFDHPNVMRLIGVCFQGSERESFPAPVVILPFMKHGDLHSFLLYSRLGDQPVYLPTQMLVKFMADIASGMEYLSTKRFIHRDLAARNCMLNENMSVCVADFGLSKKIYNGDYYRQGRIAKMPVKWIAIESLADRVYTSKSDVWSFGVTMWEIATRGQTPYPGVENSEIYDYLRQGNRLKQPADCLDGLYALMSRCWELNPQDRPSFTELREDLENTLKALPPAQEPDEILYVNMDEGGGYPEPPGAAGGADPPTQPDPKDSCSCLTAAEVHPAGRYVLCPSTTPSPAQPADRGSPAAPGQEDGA
Chain of ROS1 (P08922 28-2347): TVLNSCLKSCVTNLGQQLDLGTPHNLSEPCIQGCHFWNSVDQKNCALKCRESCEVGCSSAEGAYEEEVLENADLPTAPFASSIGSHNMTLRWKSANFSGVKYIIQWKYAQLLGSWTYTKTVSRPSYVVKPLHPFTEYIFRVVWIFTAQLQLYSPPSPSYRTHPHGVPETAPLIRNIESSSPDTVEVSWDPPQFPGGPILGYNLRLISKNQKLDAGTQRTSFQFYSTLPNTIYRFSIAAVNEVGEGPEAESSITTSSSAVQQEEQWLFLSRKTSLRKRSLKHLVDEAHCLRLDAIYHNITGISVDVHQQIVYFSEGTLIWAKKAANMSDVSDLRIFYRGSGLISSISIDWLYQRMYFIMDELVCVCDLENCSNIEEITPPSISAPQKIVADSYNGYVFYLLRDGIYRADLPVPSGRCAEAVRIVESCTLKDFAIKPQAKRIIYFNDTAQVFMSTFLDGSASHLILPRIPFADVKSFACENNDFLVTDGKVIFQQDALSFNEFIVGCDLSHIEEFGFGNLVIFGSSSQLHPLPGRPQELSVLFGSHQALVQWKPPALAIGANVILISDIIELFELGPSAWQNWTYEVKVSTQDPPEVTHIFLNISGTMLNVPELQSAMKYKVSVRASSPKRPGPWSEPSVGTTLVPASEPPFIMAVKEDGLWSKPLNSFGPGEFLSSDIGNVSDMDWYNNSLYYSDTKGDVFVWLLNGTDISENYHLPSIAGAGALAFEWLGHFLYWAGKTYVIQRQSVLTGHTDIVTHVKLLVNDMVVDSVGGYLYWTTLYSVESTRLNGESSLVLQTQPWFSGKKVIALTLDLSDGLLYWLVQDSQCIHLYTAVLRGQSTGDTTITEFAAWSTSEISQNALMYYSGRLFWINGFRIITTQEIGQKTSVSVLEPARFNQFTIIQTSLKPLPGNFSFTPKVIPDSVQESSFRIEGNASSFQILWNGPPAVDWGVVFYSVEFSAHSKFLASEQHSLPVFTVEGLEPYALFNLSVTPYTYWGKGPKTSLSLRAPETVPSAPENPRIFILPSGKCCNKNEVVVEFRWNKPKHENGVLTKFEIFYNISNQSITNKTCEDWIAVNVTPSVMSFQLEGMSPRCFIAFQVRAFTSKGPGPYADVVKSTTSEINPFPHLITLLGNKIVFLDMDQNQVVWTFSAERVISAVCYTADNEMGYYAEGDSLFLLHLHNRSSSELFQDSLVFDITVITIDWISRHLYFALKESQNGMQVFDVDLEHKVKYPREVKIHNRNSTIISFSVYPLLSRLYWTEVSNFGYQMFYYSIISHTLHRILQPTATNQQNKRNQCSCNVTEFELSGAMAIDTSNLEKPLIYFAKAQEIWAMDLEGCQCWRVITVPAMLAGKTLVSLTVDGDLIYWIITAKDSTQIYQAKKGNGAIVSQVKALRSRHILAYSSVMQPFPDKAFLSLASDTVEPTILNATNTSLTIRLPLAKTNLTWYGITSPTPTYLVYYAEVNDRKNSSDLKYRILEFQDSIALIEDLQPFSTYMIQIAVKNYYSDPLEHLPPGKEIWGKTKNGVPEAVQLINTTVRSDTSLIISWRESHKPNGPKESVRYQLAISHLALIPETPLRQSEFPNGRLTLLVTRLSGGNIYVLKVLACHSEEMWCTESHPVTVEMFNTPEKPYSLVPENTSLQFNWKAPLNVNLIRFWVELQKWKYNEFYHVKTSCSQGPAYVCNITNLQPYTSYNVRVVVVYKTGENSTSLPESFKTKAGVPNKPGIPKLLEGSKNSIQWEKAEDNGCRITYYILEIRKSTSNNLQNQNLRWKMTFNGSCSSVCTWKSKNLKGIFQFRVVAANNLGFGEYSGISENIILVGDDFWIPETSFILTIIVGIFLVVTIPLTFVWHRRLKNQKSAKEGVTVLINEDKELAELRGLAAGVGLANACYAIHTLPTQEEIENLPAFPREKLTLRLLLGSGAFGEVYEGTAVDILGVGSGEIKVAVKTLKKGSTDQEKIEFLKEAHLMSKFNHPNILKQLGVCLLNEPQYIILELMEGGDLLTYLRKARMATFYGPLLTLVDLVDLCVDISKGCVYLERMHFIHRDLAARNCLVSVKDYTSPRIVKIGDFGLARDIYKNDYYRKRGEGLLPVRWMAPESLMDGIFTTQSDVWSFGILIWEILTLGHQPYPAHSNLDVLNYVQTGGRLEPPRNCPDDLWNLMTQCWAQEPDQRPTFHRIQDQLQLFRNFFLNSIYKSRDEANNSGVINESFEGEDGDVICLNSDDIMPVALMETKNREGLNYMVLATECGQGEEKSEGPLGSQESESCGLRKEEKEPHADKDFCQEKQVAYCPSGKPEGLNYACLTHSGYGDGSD
Chain of SGK3 (Q96BR1 whole entry): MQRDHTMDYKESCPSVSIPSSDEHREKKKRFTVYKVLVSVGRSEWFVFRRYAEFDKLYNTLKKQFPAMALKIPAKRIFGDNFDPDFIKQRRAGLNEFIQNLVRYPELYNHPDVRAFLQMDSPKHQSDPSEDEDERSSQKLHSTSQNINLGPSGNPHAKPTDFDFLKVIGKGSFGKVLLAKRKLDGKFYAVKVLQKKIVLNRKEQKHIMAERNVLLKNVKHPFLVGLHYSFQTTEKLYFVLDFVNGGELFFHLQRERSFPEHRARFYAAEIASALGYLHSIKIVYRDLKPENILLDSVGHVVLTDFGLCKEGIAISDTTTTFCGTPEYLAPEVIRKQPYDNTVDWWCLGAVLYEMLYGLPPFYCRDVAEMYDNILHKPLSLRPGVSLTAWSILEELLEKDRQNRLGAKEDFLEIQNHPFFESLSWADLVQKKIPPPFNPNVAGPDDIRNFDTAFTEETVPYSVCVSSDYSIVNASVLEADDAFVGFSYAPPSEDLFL
Chain of DMPK (Q09013 whole entry): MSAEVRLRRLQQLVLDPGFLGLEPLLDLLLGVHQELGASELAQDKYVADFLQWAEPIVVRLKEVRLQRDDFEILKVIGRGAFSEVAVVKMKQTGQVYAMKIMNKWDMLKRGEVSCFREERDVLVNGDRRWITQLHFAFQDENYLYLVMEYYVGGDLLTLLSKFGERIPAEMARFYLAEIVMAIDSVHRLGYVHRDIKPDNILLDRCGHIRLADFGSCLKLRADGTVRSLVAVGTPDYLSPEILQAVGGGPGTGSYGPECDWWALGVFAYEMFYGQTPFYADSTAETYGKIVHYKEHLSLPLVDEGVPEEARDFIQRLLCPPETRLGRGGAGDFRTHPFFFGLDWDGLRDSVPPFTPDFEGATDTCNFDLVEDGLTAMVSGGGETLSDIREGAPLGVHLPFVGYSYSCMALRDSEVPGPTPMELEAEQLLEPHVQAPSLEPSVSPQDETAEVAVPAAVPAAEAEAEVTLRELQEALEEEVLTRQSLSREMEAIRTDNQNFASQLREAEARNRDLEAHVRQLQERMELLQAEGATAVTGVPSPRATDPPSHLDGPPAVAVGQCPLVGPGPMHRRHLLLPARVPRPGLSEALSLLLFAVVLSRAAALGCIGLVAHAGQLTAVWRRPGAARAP
Chain of PHKG1 (Q16816 whole entry): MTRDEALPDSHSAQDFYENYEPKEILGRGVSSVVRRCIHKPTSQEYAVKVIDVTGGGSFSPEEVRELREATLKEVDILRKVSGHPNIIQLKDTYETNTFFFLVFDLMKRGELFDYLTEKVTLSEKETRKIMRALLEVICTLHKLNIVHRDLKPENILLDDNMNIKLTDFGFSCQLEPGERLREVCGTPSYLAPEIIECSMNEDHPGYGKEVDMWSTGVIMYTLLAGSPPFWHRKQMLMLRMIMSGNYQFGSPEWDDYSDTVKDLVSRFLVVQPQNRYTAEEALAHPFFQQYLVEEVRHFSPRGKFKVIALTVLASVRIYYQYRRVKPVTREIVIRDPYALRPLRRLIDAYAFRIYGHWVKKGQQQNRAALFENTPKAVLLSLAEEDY

In the case of `COc1ccc2[nH]c3c4[nH]c5ccc(OC)cc5c4c4c(c3c2c1)C(=O)NC4=O` [GW296115], the “Nanosyn % Inhibition at 1 μM” value (BRSK1 [1]) is listed as 102%, the inhibition at 1 µM (DAPK1) is listed as 78% and the inhibition at 1 µM (ROS1) is listed as 76%. It also gave an inhibition at 1 µM (DCLK3/DCAMKL3) of 83%, an inhibition at 1 µM (NUAK1/ARK5) of 85% and an inhibition at 1 µM (BRSK2) of 83%. The inhibition at 1 µM (AXL) was 75%, the inhibition at 1 µM (SGK3) was 86% and the inhibition at 1 µM (BRSK1 [2]) was 82%. For the same molecule, the inhibition at 1 µM (PHKG1) was 82%, the inhibition at 1 µM (PIM2) was 83% and the inhibition at 1 µM (DMPK) was 75%.
